Measured values reported in US6537797B1, “Compositions and methods useful in bioremediation of polychlorinated biphenyls” (Indiana University, Advanced Research and Technology …, priority 1999, dated 2003).
“Also recorded” adds a separate entry of the source.

Columns and labels:
Type in all cases: cell-based
[1] = tested on: bacterial strain SK-1; experiment: Growth substrate tests in liquid medium; settings: initial concentration 100 parts per million, except chlorobenzoate 2-3 millimolar
Experimental: (§1) The ability of the four isolated strains to grow on selected polychlorobiphenyls as a sole carbon source was assessed.
(§2) (All tests were conducted in a liquid medium. The initial concentration of the organic substrate was 100 parts per million, except chlorobenzoate, which was 2-3 millimolar).

[2] = tested on: bacterial strain SK-2; experiment: Growth substrate tests in liquid medium; settings: initial concentration 100 parts per million, except chlorobenzoate 2-3 millimolar
Experimental: as §1, §2

[3] = tested on: bacterial strain SK-3; experiment: Growth substrate tests in liquid medium; settings: initial concentration 100 parts per million, except chlorobenzoate 2-3 millimolar
Experimental: as §1, §2

[4] = tested on: bacterial strain SK-4; experiment: Growth substrate tests in liquid medium; settings: initial concentration 100 parts per million, except chlorobenzoate 2-3 millimolar
Experimental: as §1, §2

[5] = tested on: bacterial strain SK-3; experiment: Characterization of SK-3: growth on and degradation of chlorobiphenyls and chlorobenzoates
Experimental: The concentrations of chlorobenzoates and dichlorobiphenyls were assessed after hexane extraction of bottles using gas chromatography analysis of the extracts with an electron capture detector. Chlorobenzoates were analyzed using standard columns after derivitization with pentafluorobenzyl bromide. Dichlorobiphenyls were analyzed using a DB-5 column (J&W Scientific, Fulsom, Calif.).
The results from this experiment are depicted in FIG. 5.
The growth of SK-3 on 4-chlorobiphenyl (4-CB) was compared with growth on its non-chlorinated form, biphenyl. […] The results from this experiment are depicted in FIG. 6. The concentration of chloride ion was determined using ion chromatography on a standard Dionex ion chromatography column. The concentration of 4-CB was assessed after hexane extraction of bottles by analyzing the hexane extracts using gas chromatography on a DB-5 column (J&W Scientific, Fulsom, Calif.) and an electron capture detector.
The growth of SK-3 on chlorobenzoates was assessed. […] The results from this experiment are depicted in FIG. 7.
The degradation of three different monochlorobiphenyls, (2-CB, 3-CB, and 4-CB) by SK-3 was assessed at 23° C. under aerobic conditions on a shaker table. After incubation of SK-3 with the selected monochlorobiphenyl for 88 hours, the concentrations of chloride and the corresponding chlorobenzoic acids (CBA) was assessed as described herein. The results from this experiment are depicted in FIG. 8.
The growth of SK-3 on dichloro-biphenyls was also assessed. […] The results of this experiment are depicted in FIG. 9.

[6] = tested on: bacterial strain SK-4; experiment: Characterization of SK-4: growth on and degradation of 2,2′-DCBP and 2,4′-DCBP
Experimental: The same methods for determining concentrations of analytes and for the incubation of the bacterial strain with growth substrate described herein for the previous analyses were used in the experiments to characterize SK-4. The concentration of SK-4 cells in the experiments was 1.5×10^7 cells per milliliter and the concentration of 2,2′-DCBP or 2,4′-DCBP was 100 milligrams per liter. […] Ortho-substituted congeners are common degradation products of anaerobic reductive dechlorination of more highly chlorinated PCBs (PCBs comprising more than two chlorine atoms) by anaerobic bacteria.
2,2′-DCBP was supplied at a concentration of 100 milligrams per liter dissolved in heptamethyl nonane (HMN), a non-biodegradable PCB solvent. Controls contained HMN but lacked 2,2′-DCBP.

[7] = tested on: bacterial strain SK-3; experiment: Biodegradation of commercial PCB mixture Aroclor 1242 as sole carbon source; settings: 12 days; benzoate-grown washed cells; no cosubstrate; GC
Experimental: In addition to testing the ability to use a single PCB congener as a sole carbon source (as described in Example 1), several strains of the isolated bacteria of the invention (SK-1, SK-2, SK-3 and SK-4) were tested for the ability to degrade low chlorinated PCB congeners (dichlorobiphenyls and trichlorobiphenyls) of a commercial PCB mixture in the absence of biphenyl or any other cometabolic substrate as a carbon source.
The ability of SK-1, SK-2, SK-3 and SK-4 to degrade Aroclor® 1242 was assessed using cells which were grown on benzoate and then washed. Briefly, the cells were washed by centrifuging the cells, decanting the supernatant, resuspending the cells in fresh medium, then pelleting the cells using centrifugation again and decanting the supernatant to remove residual benzoate and other carbon sources. Aroclor® 1242 was the sole carbon source provided to the cells.
The degradation of Aroclor® 1242 by SK-3 was monitored using gas is chromatography analysis and the results are depicted in FIG. 12. […] The degraded PCB congeners were identified as follows: Peak #1 was 2,5-DCBP or 2,4-DCBP; Peak #2 was 2,3′-DCBP; and Peak #3 was 2,4′-DCBP. No significant degradation of any PCB congener containing three or more chlorine atoms was observed.

[8] = 1.5×10^7 cells per milliliter, substrate in heptamethyl nonane

Question: Which results are given for `Clc1ccc(-c2ccccc2Cl)cc1` [2,4′-DCBP, 2,4′-dichlorobiphenyl]?
Answer: Growth of SK-1 on the substrate as sole carbon source [1]: Yes; Growth of SK-2 on the substrate as sole carbon source [2]: Unlikely; Growth of SK-3 on the substrate as sole carbon source [3]: exhibited growth and Yes; Growth of SK-4 on the substrate as sole carbon source [4]: exhibited growth and Yes; Growth of SK-3 on the substrate as sole carbon source [5]: able to grow; Doubling time of SK-3 grown on the substrate ([5]; concentration 0.27 mM, sole carbon source): approximately 43 hours; Extent of chloride production by SK-3 ([5]; growth on 0.27 mM 2,4′-DCBP): 0.49 mM; Production of chlorobenzoates (2-CBA, 4-CBA) during growth of SK-3 ([5]; growth on 2,4′-DCBP): not detected; Growth of SK-4 on the substrate as sole carbon source ([6]; 1.5×10^7 cells per milliliter, 100 milligrams per liter): growth; also recorded: ability to grow rapidly; Chloride release on degradation by SK-4 [6, 8]: production of chloride; Chlorobenzoate production on degradation by SK-4 [6, 8]: stoichiometric accumulation of a chlorobenzoate; Doubling time of SK-4 grown on the substrate ([6]; concentration 0.42 mM, sole carbon source): ~17 h; Degradation of PCB congeners of Aroclor 1242 by SK-3 [7]: degraded
